The values below come from PubChem BioAssay (NCI).

Each structure is given as a SMILES string.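 The compound was tested at five concentrations on cells cultured in 96-well plates, with a 48-hour exposure period. GI50 marks 50% less growth. At the TGI there is no net growth.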

What all share (test): NCI tumour cell line growth inhibition, 48 h
In assay [1] the test system is CAKI-1 renal.
Assay [2] has as its system DMS 114 small cell lung.
Assay [3] relates to MALME-3M melanoma.
Assay [4] has as its system OVCAR-8 ovarian.
Assay [5] concerns OVCAR-5 ovarian.
For assay [6], the system named is ACHN renal.
In assay [7] the test system is SK-MEL-2 melanoma.
For assay [8], the system named is BT-549 breast.
For assay [9], the system named is MDA-MB-231 breast.

As for `COC(=O)C1C(=O)O[C@@H](c2ccc(OC)c(OC)c2OC)C1C(=O)OC` (mixture of isomers), the TGI in [1], in assay [2], in assay [3], in assay [4], in assay [5] and in assay [6] was over 100 µM throughout.

Regarding `CCN(CC)CC(=O)NC1c2ccccc2Oc2c(C)cccc21` (stereo not given), the TGI in assay [2], in assay [4], in assay [5] and in assay [6] was over 100 µM throughout.

In the case of `CCOc1ccc2c(c1)CN(Cc1ccc(Cl)cc1)CO2`, the GI50 in [1] is 16.3 µM; in assay [7] it was 18 µM; in assay [3], 14.8 µM; in assay [8], 17.6 µM; in assay [9] it was 12.9 µM; in assay [4], 18 µM. Further, the GI50 was 17.9 µM in [5] and 19.3 µM in assay [6]. Besides, the TGI turned out to be 43.2 µM in [1]; 34 µM in assay [7]; 29.5 µM in assay [3]; 36.8 µM in [8]; 34.6 µM in assay [9]; 38.3 µM in assay [4]. Further, the figures for the TGI in assay [5] and in [6] were 46.2 µM and 55 µM, respectively.

Turning to `O=C(O)c1c(Cl)c(Cl)c(Cl)c(Cl)c1C(=O)Nc1ccc2cn[nH]c2c1`, the TGI in [1], in assay [7], in [3], in assay [8], in [9] and in [4] was over 100 µM in each case. Further, the TGI in [5] and in [6] was over 100 µM each time.

Consider `O=C1c2cccnc2C(=O)c2c1c(C(=O)NCCn1ccnc1)c1ccccn21`, for which the GI50 in assay [1] was 15.1 µM; in assay [7], 2.82 µM; in [3], 0.722 µM; in assay [8], 5.14 µM; in assay [9] it was 3.46 µM; in [4], 2.48 µM. The GI50 in [5] was 4.1 µM; in assay [6], 2.75 µM. Moreover, the TGI in assay [1] was 34.5 µM; in assay [7], 8.3 µM; in assay [3], 2.14 µM; in assay [8], 16.9 µM; in assay [9] it was over 100 µM; in [4], 8.06 µM. In addition, the TGI in [5] came out at 24.2 µM; in assay [6], 36 µM.

On to `O=C1c2ccccc2C(=O)c2c1ccc1c(=O)n(-c3ccccc3C(F)(F)F)nnc21`, for which the GI50 was 2.77 µM in assay [1]; 2.64 µM in assay [7]; 1.27 µM in assay [3]; 1.81 µM in assay [8]; 2.07 µM in [9]; 2.49 µM in assay [4]. The figures for the GI50 in [5] and in [6] were 2.19 µM and 2.7 µM, respectively. Also, the TGI is over 100 µM in assay [1]; 7.61 µM in assay [7]; 2.54 µM in assay [3]; 6.8 µM in [8]; 7.04 µM in [9]; over 100 µM in [4]. For the same compound, the TGI in assay [5] was 6.01 µM; in assay [6], over 100 µM.

With `CC(c1ccccc1)[C@@H](C(=O)Nc1ccc(I)cc1F)N1C(=O)N[C@H](c2ccc(OC[C@H](O)CO)cc2)C1=O` (stereo not given in full), the GI50 in assay [1] is 16.2 µM; in assay [7] it was 0.158 µM; in assay [3], 0.0025 µM; in assay [8], 9.17 µM; in assay [9] it was 1.56 µM; in [4], over 15.9 µM. Further, the values for the GI50 in assay [5] and in assay [6] were 1.03 µM and 8.48 µM, respectively. The TGI was over 25 µM in assay [1]; 1.51 µM in [7]; 0.0856 µM in [3]; over 23.7 µM in assay [8]; over 25 µM in assay [9]; over 25 µM in assay [4]. The TGI in assay [5] and in assay [6] was over 25 µM in each case.

Turning to `C/C(=N/O)c1ccc2c(c1)/C(=N/O)c1ccccc1-2`, the GI50 was 20.3 µM in [1]; 23.1 µM in assay [7]; 21.9 µM in assay [3]; 21.4 µM in assay [8]; 23 µM in [9]; 21.4 µM in assay [4]. Further, the GI50 was 22.8 µM in assay [5] and 20.6 µM in [6]. Besides, the TGI in [1] was 44.8 µM; in assay [7], 48 µM; in assay [3] it was 46 µM; in assay [8] it was 50.4 µM; in assay [9] it was 56.5 µM; in [4], 46.4 µM. Moreover, the TGI in [5] was 53.5 µM; in assay [6] it was 46.1 µM.

Turning to `CCN(CC)CCC(CNc1ccnc2cc(Cl)ccc12)c1ccccc1` (stereo not given), the GI50 was 3.52 µM in assay [1]; 1.95 µM in [7]; 2.05 µM in [3]; 10.8 µM in assay [8]; 2.18 µM in [9]; 5.05 µM in assay [4]. Further, the values for the GI50 in assay [5] and in [6] were 16.9 µM and 3.91 µM, respectively. Also, the TGI in assay [1] was 18.5 µM; in [7], 4.06 µM; in [3] it was 3.88 µM; in assay [8], 24.6 µM; in assay [9] it was 15.8 µM; in [4], 20.5 µM. In addition, the TGI in assay [5] came out at 73.3 µM; in assay [6], 14.7 µM.

Turning to `Cc1ccc(-c2nc(N3CCNCC3)c3oc(-c4ccccc4)nc3n2)cc1`, the GI50 is 1.73 µM in assay [1]; 2.64 µM in [7]; 2.07 µM in assay [3]; 13.8 µM in assay [8]; 1.62 µM in [9]; 1.95 µM in assay [4]. Besides, the GI50 in assay [5] was 1.68 µM; in [6], 1.75 µM. Besides, the TGI in assay [1] worked out at 3.26 µM; in [7] it was 6.01 µM; in assay [3], 3.75 µM; in assay [8], 31.6 µM; in [9], 3.06 µM; in assay [4] it was 4.15 µM. Also, the TGI was 3.36 µM in assay [5] and 3.12 µM in assay [6].
